Eight compounds from US12514859B2, “Pyrazole pyrimidine derivative and uses thereof” (Yissum Research Development Company of the Hebrew …, priority 2015, dated 2026) can be followed below.

The subject of test [1] is p53, DNA damage response (γH2AX). Description: p53 and DNA damage response activation in RKO cells (Western blot, primary screen and dose response). Format: cell-based. Conditions: 16 hours, Western blot, average value. On the procedure:
(§1) Primary Screen in RKO cells for compounds having typical CKIα inhibitory activity (β-catenin and p53 stabilization and histone H2AX phosphorylation; see Elyada et al, Nature 2011 Feb. 17; 470(7334):409-13; Pribluda et al, Cancer Cell 2013 Aug. 12; 24(2):242-56). RKO colorectal cells were incubated with 10 μM of each of the compounds for 16 hours at 37° C. Cells were washed with PBS and cell pellets were incubated with ice cold protein lysis buffer containing protease inhibitor cocktail (1/200; Calbiochem) and phosphatase inhibitors (20 mM p-nitrophenyl phosphate (PNPP), 20 mM β-glycerophosphate and 300 nM okadaic acid). Western blot analysis was performed by means of standard techniques. Blots were incubated with antibodies detecting β-catenin (1/2,500; BD Transduction), p53 (DO-1&1801 hybridoma mix; dilution of 1:20 of supernatants from each), CKIα (C-19; 1/1,000; Santa Cruz Biotechnology) and phospho-histoneH2AX (S139; 1/1,000; Millipore). Secondary antibodies were HRP-linked goat anti-mouse, goat anti-rabbit and rabbit anti-goat antibodies (all 1/10,000; Jackson). Blots were developed using ECL (GE Healthcare).
(§2) Active compounds were further analyzed in a dose-response experiment (FIGS. 1A and 1B). Similar to the primary screen, RKO cells were incubated with descending concentrations of each of the active compounds for 16 hours at 37° C. Cell extract isolation and Western Blot analysis were similar to the primary screen.
(§3) Table 1 provides quantified information for compounds of the invention in activation of p53 and DNA damage response (DDR) and β-catenin stabilization as an indicator of Wnt pathway activation. p53 activation was determined according to the degree of protein stabilization in several Western blot assays (Western blot examples are shown in FIGS. 1A and 1B). […] In contrast, A35 started stabilizing p53 at […], with maximal stabilization at […] (FIG. 1A, upper right panel) and thus received an average value of +++ for p53 activation.
For orientation: Immunoblotting shows a protein as a band on a membrane.

The next test deals with Wnt/β-catenin. Description: β-catenin stabilization (Wnt pathway activation) in RKO cells (Western blot). Format: cell-based. Conditions: 16 hours, Western blot. How it is done: as §1, §2, §3

In the case of `N[C@H]1CC[C@H](Nc2nccc(-c3cnn(C4CCCOC4)c3CC3CC3)n2)CC1` (stereo partly drawn) [Compound A38, (1R, 4R)—N^1-(4-(5-(cyclopropylmethyl)-1-(tetrahydro-2H-pyran-3-yl)-1H-pyrazol-4-yl)pyrimidin-2-yl)cyclohexane-1,4-diamine], in test [1], the “DDR & p53 activity” value is given as “+ (+ indicates low, yet significant activation at a compound concentration of 6 μM)”. The β-Catenin activity entry with Wnt/β-catenin is “+ (+ indicates low, yet significant activation at a compound concentration of 6 μM)”.

Consider `Cn1ncc(-c2ccnc(N[C@H]3CC[C@H](N4CCOCC4)CC3)n2)c1CC1CC1` [Compound A48, 4-(5-(cyclopropylmethyl)-1-methyl-1H-pyrazol-4-yl)-N-((1r, 4r)-4-morpholinocyclohexyl)pyrimidin-2-amine], for which the “DDR & p53 activity” value in test [1] is “+ (+ indicates low, yet significant activation at a compound concentration of 6 μM)”. For the same compound, the β-Catenin activity result in the test on Wnt/β-catenin is recorded as “+ (+ indicates low, yet significant activation at a compound concentration of 6 μM)”.

As for `CC(C)n1ncc(-c2ccnc(N[C@H]3CC[C@H](N)CC3)n2)c1CC1CCC1` [Compound A53, (1R,4R)—N^1-(4-(5-(cyclobutylmethyl)-1-isopropyl-1H-pyrazol-4-yl)pyrimidin-2-yl)cyclohexane-1,4-diamine], in test [1], the “DDR & p53 activity” value is given as “+ (+ indicates low, yet significant activation at a compound concentration of 6 μM)”. Moreover, the β-Catenin activity entry in the test on Wnt/β-catenin is reported as “+ (+ indicates low, yet significant activation at a compound concentration of 6 μM)”.

Take `Cn1ncc(-c2nc(N[C@H]3CC[C@H](Nc4ccccc4)CC3)ncc2Cl)c1CC1CC1` [Compound A68, (1R,4R)—N^1-(5-chloro-4-(5-(cyclopropylmethyl)-1-methyl-1H-pyrazol-4-yl)pyrimidin-2-yl)-N^4-phenylcyclohexane-1,4-diamine]: the “DDR & p53 activity” value in test [1] was “+ (+ indicates low, yet significant activation at a compound concentration of 6 μM)”. Besides, the β-Catenin activity entry in the test with Wnt/β-catenin is given as “+ (+ indicates low, yet significant activation at a compound concentration of 6 μM)”.

Turning to `Cn1ncc(-c2nc(NC3CCC(NCc4cn[nH]c4)CC3)ncc2Cl)c1CC1CC1` [Compound A75, (1R,4R)—N^1-((1H-pyrazol-4-yl)methyl)-N^4-(5-chloro-4-(5-(cyclopropylmethyl)-1-methyl-1H-pyrazol-4-yl)pyrimidin-2-yl)cyclohexane-1,4-diamine], the “DDR & p53 activity” value in test [1] was “+++++ (+++++ indicates maximal activation of p53 and DDR at >0.1 μM)”. The β-Catenin activity result in the test with Wnt/β-catenin is recorded as “+++ (+++ indicates maximal β-catenin or p53 stabilization at >2 μM)”.

For `Cn1ncc(-c2nc(NC3CCC(NCc4cn[nH]c4)CC3)ncc2F)c1CC1CC1` [Compound A85, (1R,4R)—N^1-((1H-pyrazol-4-yl)methyl)-N^4-(4-(5-(cyclopropylmethyl)-1-methyl-1H-pyrazol-4-yl)-5-fluoropyrimidin-2-yl)cyclohexane-1,4-diamine], the “DDR & p53 activity” value in test [1] is on record as “+++ (+++ indicates maximal β-catenin or p53 stabilization at >2 μM)”. For the same compound, the β-Catenin activity entry in the test on Wnt/β-catenin is reported as “+++ (+++ indicates maximal β-catenin or p53 stabilization at >2 μM)”.

`Cn1ncc(-c2nc(NC3CCC(N)CC3)ncc2F)c1CC1CC1` [Compound A86, (1R,4R)—N^1-(4-(5-(cyclopropylmethyl)-1-methyl-1H-pyrazol-4-yl)-5-fluoropyrimidin-2-yl)cyclohexane-1,4-diamine]: the “DDR & p53 activity” value in test [1] was “+++++ (+++++ indicates maximal activation of p53 and DDR at >0.1 μM)”. For the same compound, in the test on Wnt/β-catenin, the β-Catenin activity result is “+++ (+++ indicates maximal β-catenin or p53 stabilization at >2 μM)”.

As for `Cn1ncc(-c2nc(N[C@H]3CC[C@H](NC(=O)c4cn[nH]c4)CC3)ncc2Cl)c1CC1CC1` [Compound A87, N-((1R,4R)-4-((5-chloro-4-(5-(cyclopropylmethyl)-1-methyl-1H-pyrazol-4-yl)pyrimidin-2-yl)amino)cyclohexyl)-1H-pyrazole-4-carboxamide], the “DDR & p53 activity” value in test [1] is reported as “+ (+ indicates low, yet significant activation at a compound concentration of 6 μM)”. The β-Catenin activity entry in the test with Wnt/β-catenin is reported as “+++ (+++ indicates maximal β-catenin or p53 stabilization at >2 μM)”.
